Numbers after ± are expanded uncertainties.
Columns and labels:
[1] = refractive index (Na D-line) (dimensionless); xn = mol fraction of the nth substance listed; details: 81.5 kPa, Liquid, Standard Abbe refractometry
[2] = xn = mol fraction of the nth substance listed; details: 81.5 kPa, Liquid, Vibrating tube method

| SMILES | refractive index ([1]; 293.15 K, x1 = 1) | refractive index ([1]; 303.15 K, x1 = 1) | refractive index ([1]; 313.15 K, x1 = 1) | refractive index ([1]; 323.15 K, x1 = 1) | refractive index ([1]; 333.15 K, x1 = 1) | mass density ([2]; 293.15 K, x1 = 1) [kg/m3] | mass density ([2]; 303.15 K, x1 = 1) [kg/m3] | mass density ([2]; 313.15 K, x1 = 1) [kg/m3] | mass density ([2]; 323.15 K, x1 = 1) [kg/m3] | mass density ([2]; 333.15 K, x1 = 1) [kg/m3] | refractive index ([1]; 293.15 K, x2 = 0) | refractive index ([1]; 303.15 K, x2 = 0) | refractive index ([1]; 313.15 K, x2 = 0) | refractive index ([1]; 323.15 K, x2 = 0) | refractive index ([1]; 333.15 K, x2 = 0) | mass density ([2]; 293.15 K, x2 = 0) [kg/m3] | mass density ([2]; 303.15 K, x2 = 0) [kg/m3] | mass density ([2]; 313.15 K, x2 = 0) [kg/m3] | mass density ([2]; 323.15 K, x2 = 0) [kg/m3] | mass density ([2]; 333.15 K, x2 = 0) [kg/m3] |
| --- | --- | --- | --- | --- | --- | --- | --- | --- | --- | --- | --- | --- | --- | --- | --- | --- | --- | --- | --- | --- |
| Clc1ccccc1 [chlorobenzene] + Brc1ccccc1 | 1.52455 ± 0.01 | 1.51902 ± 0.01 | 1.51346 ± 0.01 | 1.50781 ± 0.01 | 1.50223 ± 0.01 | 1106.49 ± 10 | 1095.71 ± 10 | 1084.86 ± 10 | 1073.96 ± 10 | 1063.01 ± 10 |  |  |  |  |  |  |  |  |  |  |
| O=[N+]([O-])c1ccccc1 [nitrobenzene] + Brc1ccccc1 |  |  |  |  |  |  |  |  |  |  | 1.55241 ± 0.01 | 1.54763 ± 0.01 | 1.54288 ± 0.01 | 1.53795 ± 0.01 | 1.53289 ± 0.01 | 1203.05 ± 10 | 1193.15 ± 10 | 1183.21 ± 10 | 1173.27 ± 10 | 1163.32 ± 10 |
| O=[N+]([O-])c1ccccc1 [nitrobenzene] + Clc1ccccc1 |  |  |  |  |  |  |  |  |  |  | 1.55241 ± 0.01 | 1.54763 ± 0.01 | 1.54288 ± 0.01 | 1.53795 ± 0.01 | 1.53289 ± 0.01 | 1203.05 ± 10 | 1193.15 ± 10 | 1183.21 ± 10 | 1173.27 ± 10 | 1163.32 ± 10 |

From the NIST ThermoML archive (doi:10.1016/j.tca.2016.06.023)
